Measured values taken from the NIST ThermoML archive (doi:10.1021/je060033f).
± gives the expanded uncertainty stated by the source.

Assay: activity coefficient (dimensionless); of the first substance listed, at infinite dilution; xn = mol fraction of the nth substance listed
Conditions: 323.15 K; 101 kPa; Liquid; Chromatography; x1 = 0

Row | Compound | activity coefficient
1 | ClC(Cl)(Cl)Cl [tetrachloromethane] + C[n+]1ccn(CCCB(O)O)c1.[Br-] | 21.2 ± 1.4
2 | c1ccsc1 [thiophene] + C=CCn1cc[n+](C)c1.[Br-] | 1.48 ± 0.1
3 | c1ccsc1 [thiophene] + CCCCCCCCCCCC[n+]1ccn(CCCB(O)O)c1.[Br-] | 0.9 ± 0.06
4 | Cc1ccccc1 [toluene] + C=CC[n+]1ccn(CCCCCCCC)c1.[Br-] | 1.92 ± 0.13
5 | Cc1ccccc1 [toluene] + C=CC[n+]1ccn(CCCCCCCCCC)c1.[Br-] | 1.85 ± 0.12
6 | Cc1ccccc1 [toluene] + C=CC[n+]1ccn(CCCCCCCCCCCC)c1.[Br-] | 1.38 ± 0.09
7 | Cc1ccccc1 [toluene] + C=CCn1cc[n+](C)c1.[Br-] | 6.19 ± 0.42
8 | Cc1ccccc1 [toluene] + CCCCCCCCCCCC[n+]1ccn(CCCB(O)O)c1.[Br-] | 3.36 ± 0.23
9 | Cc1ccccc1 [toluene] + CCCCCCCCCC[n+]1ccn(CCCB(O)O)c1.[Br-] | 1.8 ± 0.12
10 | Cc1ccccc1 [toluene] + CCCCCCCC[n+]1ccn(CCCB(O)O)c1.[Br-] | 2.41 ± 0.16
11 | Cc1ccccc1 [toluene] + C[n+]1ccn(CCCB(O)O)c1.[Br-] | 38.8 ± 2.6
12 | ClC(Cl)Cl [trichloromethane] + C=CC[n+]1ccn(CCCCCCCCCC)c1.[Br-] | 0.13 ± 0.03
13 | ClC(Cl)Cl [trichloromethane] + C=CC[n+]1ccn(CCCCCCCCCCCC)c1.[Br-] | 0.12 ± 0.03
14 | ClC(Cl)Cl [trichloromethane] + CCCCCCCCCCCC[n+]1ccn(CCCB(O)O)c1.[Br-] | 0.19 ± 0.03

The next lines start with the values.

Row | activity coefficient | Compound
15 | 0.93 ± 0.06 | c1ccsc1 [thiophene] + C=CC[n+]1ccn(CCCCCCCC)c1.[Br-]
16 | 0.89 ± 0.06 | c1ccsc1 [thiophene] + C=CC[n+]1ccn(CCCCCCCCCC)c1.[Br-]
17 | 0.77 ± 0.05 | c1ccsc1 [thiophene] + C=CC[n+]1ccn(CCCCCCCCCCCC)c1.[Br-]
18 | 0.79 ± 0.05 | c1ccsc1 [thiophene] + CCCCCCCCCC[n+]1ccn(CCCB(O)O)c1.[Br-]
19 | 1.2 ± 0.08 | c1ccsc1 [thiophene] + CCCCCCCC[n+]1ccn(CCCB(O)O)c1.[Br-]
20 | 19.4 ± 1.3 | c1ccsc1 [thiophene] + C[n+]1ccn(CCCB(O)O)c1.[Br-]
21 | 0.14 ± 0.03 | ClC(Cl)Cl [trichloromethane] + C=CC[n+]1ccn(CCCCCCCC)c1.[Br-]
22 | 0.25 ± 0.03 | ClC(Cl)Cl [trichloromethane] + C=CCn1cc[n+](C)c1.[Br-]
23 | 0.12 ± 0.03 | ClC(Cl)Cl [trichloromethane] + CCCCCCCCCC[n+]1ccn(CCCB(O)O)c1.[Br-]
24 | 0.23 ± 0.03 | ClC(Cl)Cl [trichloromethane] + CCCCCCCC[n+]1ccn(CCCB(O)O)c1.[Br-]
25 | 3.01 ± 0.2 | ClC(Cl)Cl [trichloromethane] + C[n+]1ccn(CCCB(O)O)c1.[Br-]
